For the assay, the target named is T1, human cannabinoid CB2 receptor (Homo sapiens, UniProt P34972).
T1 construct: expressed in transfected cells; host or cells: Saccharomyces cerevisiae strain MMY23 (cassette integrated at the ura3 locus, GPD promoter)
The assay can be described thus: Cannabinoid CB2 receptor agonist activity in yeast cells (FDGlu fluorescence). Format: cell-based. The settings on record: for Emax: read-out: efficacy value (Emax) at the cloned human cannabinoid CB2 receptor. As to the method:
The cannabinoid CB2 receptor agonist activity of the compounds of formula (I) was determined in accordance with the following experimental method.
Yeast (Saccharomyces cerevisiae) cells expressing the human cannabinoid CB2 receptor were generated by integration of an expression cassette into the ura3 chromosomal locus of yeast strain MMY23. This cassette consisted of DNA sequence encoding the human CB2 receptor flanked by the yeast GPD promoter to the 5′ end of CB2 and a yeast transcriptional terminator sequence to the 3′ end of CB2. MMY23 expresses a yeast/mammalian chimeric G-protein alpha subunit in which the C-terminal 5 amino acids of Gpal are replaced with the C-terminal 5 amino acids of human Gαi3 (as described in Brown et al. (2000), Yeast 16:11-22).
Agonists were prepared as 10 mM stocks in DMSO. […] Agonist solutions in DMSO (1% final assay volume) were transferred into black, clear bottom, microtitre plates from NUNC (96- or 384-well). Cells were suspended at a density of 0.2 OD600/ml in SC media lacking histidine, uracil, tryptophan, adenine and leucine and supplemented with 10 mM 3-aminotriazole, 0.1M sodium phosphate pH 7.0, and […] fluorescein di-β-D-glucopyranoside (FDGlu). […] After incubation at 30° C. for 24 hours, fluorescence resulting from degradation of FDGlu to fluorescein due to exoglucanase, an endogenous yeast enzyme produced during agonist-stimulated cell growth, was determined using a Spectrofluor microtitre plate reader (Tecan; excitation wavelength: 485 nm; emission wavelength: 535 nm). Fluorescence was plotted against compound concentration and iteratively curve fitted using a four parameter fit to generate a concentration effect value. Efficacy (Emax) was calculated from the equation
Equieffective molar ratio (EMR) values were calculated from the equation

The mark [1] stands for this setting: Emax relative to HU210, yeast expressing human CB2.
The mark [2] stands for this setting: yeast (Saccharomyces cerevisiae) expressing human CB2, agonist, 30° C. for 24 hours, read-out: EC50 at the cloned human cannabinoid CB2 receptor.

Counter-ions that a name gives are not always drawn. Like-named read-outs stand apart in the source and are kept apart here.

T1 sequence (P34972 whole entry): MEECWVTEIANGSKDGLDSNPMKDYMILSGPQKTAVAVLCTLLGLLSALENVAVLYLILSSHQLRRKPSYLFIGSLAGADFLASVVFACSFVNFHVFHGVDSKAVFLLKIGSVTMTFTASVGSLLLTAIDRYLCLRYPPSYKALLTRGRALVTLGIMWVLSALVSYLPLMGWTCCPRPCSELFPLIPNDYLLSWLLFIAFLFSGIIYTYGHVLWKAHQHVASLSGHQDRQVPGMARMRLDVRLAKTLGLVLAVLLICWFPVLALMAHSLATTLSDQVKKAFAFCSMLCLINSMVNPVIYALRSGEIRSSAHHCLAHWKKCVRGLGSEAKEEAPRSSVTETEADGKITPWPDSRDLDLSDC

Take `CC(C)CNCc1cnc(Nc2cccc(Cl)c2)cc1C1CC1` [Example 5, (3-Chlorophenyl)-[4-cyclopropyl-5-(isobutylamino-methyl)-pyridin-2-yl]-amineacetate]: the EC50 – broadly, the concentration giving half of the maximal effect – was < 300 nM and the Emax (as a rule, the maximal effect, on the per cent scale that the assay sets) is > 50%.
`CC(C)c1cc(Nc2ccc(Cl)cc2F)ncc1CNCC1CCC1` [Example 25, (4-Chloro-2-fluoro-phenyl)-{5-[(cyclobutylmethyl-amino)-methyl]-4-isopropyl-pyridin-2-yl}-amine,compound with formic acid (1:1.67)]: the Emax under setting [1] is > 50%. Also, under setting [2], the EC50 fell in the range of 300 to 1000 nM.
As to `CC(C)c1cc(Nc2cc(Cl)ccc2Cl)ncc1CNCC1CCC1` [Example 20, {5-[(Cyclobutylmethyl-amino)-methyl]-4-isopropyl-pyridin-2-yl}-(2,5-dichloro-phenyl)-amine,compound with formic acid (1:1)], the EC50 is < 300 nM and the Emax is > 50%.
For `CC(C)c1cc(Nc2cc(F)cc(F)c2)ncc1CNCC1CCC1` [Example 21, {5-[(Cyclobutylmethyl-amino)-methyl]-4-isopropyl-pyridin-2-yl}-(3,5-difluoro-phenyl)-amine,compound with formic acid (1:1.3)], the Emax under setting [1] was > 50%. In addition, the EC50 under setting [2] was < 300 nM.
As for `CC(C)c1cc(Nc2cccc(C(F)(F)F)c2)ncc1CNCC1CC1` [Example 30, {5-[(Cyclopropylmethyl-amino)-methyl]-4-isopropyl-pyridin-2-yl}-(3-trifluoromethyl-phenyl)-amine,compound with formic acid (1:1)], the EC50 fell in the range of 300 to 1000 nM and the Emax was > 50%.
As to `CC(C)c1cc(Nc2cccc(Cl)c2)ncc1CNC(C)(C)C` [Example 65, [5-(tert-Butylamino-methyl)isopropyl-pyridin-2-yl]-(3-chloro-phenyl)amine dihydrochloride], the EC50 was 300 to 1000 nM and the Emax is > 50%.
Consider `CC(C)c1cc(Nc2ccc(F)c(Cl)c2)ncc1CNCC1CCC1` [Example 18, (3-Chloro-4-fluoro-phenyl)-{5-[(cyclobutyhnethyl-amino)-methyl]-4-isopropyl-pyridin-2-yl}-amine,compound with formic acid (1:1.3)], for which the Emax under setting [1] was > 50%. The EC50 under setting [2] is < 300 nM.
In the same order, the values of `Fc1ccc(Nc2cc(C3CC3)c(CNCC3CCCC3)cn2)cc1Cl` [Example 44, (3-Chloro-4-fluoro-phenyl)-{5-[(cyclopentylmethyl-amino)-methyl]-4-cyclopropyl-pyridin-2-yl}-amine, compound with formicacid (1:1.4)] are > 50% and < 300 nM.
Take `Clc1cccc(Nc2cc(C3CC3)c(CNC3CCC3)cn2)c1` [Example 1, (3-Chlorophenyl)-5-(cyclobutylaminomethyW cyclopropyl-pyridin-2-yl)-amine acetate]: the Emax under setting [1] is > 50%. Moreover, the EC50 under setting [2] was < 300 nM.
With `CC(C)c1cc(Nc2cccc(Cl)c2)ncc1CNCC1CC1` [Example 22, (3-Chloro-phenyl)-{5-[(cyclopropylmethyl-amino)-methyl]-4-isopropyl-pyridin-2-yl}-amine, compound with formic acid(1:1.25)], the EC50 is < 300 nM and the Emax was > 50%.
Turning to `CC(C)c1cc(Nc2ccc(F)cc2Cl)ncc1CNCC1CCC1` [Example 24, (2-Chloro-4-fluoro-phenyl)-{5-[(cyclobutylmethyl-amino)-methyl]-4-isopropyl-pyridin-2-yl}-amine,compound with formic acid (1:1.75)], the EC50 is 300 to 1000 nM and the Emax was > 50%.
As to `CC(C)c1cc(Nc2cccc(Cl)c2)ncc1CN1CCCC1` [Example 58, (3-Chloro-phenyl)-(4-isopropyl-5-pyrrolidin-1-ylmethyl-pyridin-2-yl)-amine. dihydrochloride], the EC50 was < 300 nM and the Emax was > 50%.
In the same order, the values of `CC(C)c1cc(Nc2ccc(Cl)cc2Cl)ncc1CNCC1CCC1` [Example 16, {5-[(Cyclobutylmethyl-amino)-methyl]-4-isopropyl-pyridin-2-yl}-(2,4-dichloro-phenyl)-amine,compound with formic acid (1:1)] are < 300 nM and > 50%.
Consider `Cc1c(Cl)cccc1Nc1cc(C2CC2)c(CNCC2CCC2)cn1` [Example 29, (3-Chloro-2-methyl-phenyl)-{5-[(cyclobutylmethyl-amino)-methyl]-4-cyclopropyl-pyridin-2-yl}-amine,compound with formic acid (1:1.57)], for which the Emax under setting [1] was > 50%. Further, the EC50 under setting [2] lay within 300 to 1000 nM.
Consider `CC(C)CNCc1cnc(Nc2cccc(C(F)(F)F)c2)cc1C(C)C` [Example 51, [5-(Isobutylamino-methyl)-4-isopropyl-pyridin-2-yl]-(3-trifluoromethyl-phenyl)-amine,compound with formic acid (1:1,25)], for which, under setting [1], the Emax is > 50%. In addition, the EC50 under setting [2] is < 300 nM.
As to `Clc1cccc(Nc2cc(C3CC3)c(CN3CCOCC3)cn2)c1` [Example 4, (3-Chlorophenyl)-(4-cyclopropyl-5-morpholin-4-ylmethyl-pyridin-2-yl)-aminedihydrochloride], the EC50 was < 300 nM and the Emax is > 50%.
Regarding `Clc1cccc(Nc2cc(C3CC3)c(CNCC3CCC3)cn2)c1` [Example 13, (3-Chloro-phenyl)-{5-[(cyclobutylmethyl-amino)-methyl]-4-cyclopropyl-pyridin-2-yl}-amine], the EC50 was < 300 nM and the Emax was > 50%.

(Values after patent US20080280868A1, “Pyridine Derivatives and Their Use as Cb2 Receptor Modulators” (priority 2004, published 2008).)
